This is an account of results in patent US5126356A, “Piperidine compounds” (Adir et Compagnie, priority 1989, dated 1992).

One test has as its target Beta adrenergic β. Briefly: Binding to neurotransmitter receptors: beta adrenergic ([3H] DHA). To be noted: read-out: K0.5.
Another test relates to beagle dogs. Briefly: Anti-ischaemic activity, Protocol 2: moderate coronary stenosis plus auricular pacing in anaesthetised beagle dogs. It counts as in vivo, dog. As to conditions: Pacing 2 minutes, 1 mg/kg i.v. As for the experimental part:
The studies are carried out on beagle dogs weighing from 9 to 12 kg which have been anaesthetised with pentobarbital sodium 30 mg/kg i.v., intubated and ventilated, and subjected to a thoracotomy at the 5th left intercostal space.
An electromagnetic ring connected to a Gould SP 2202 electromagnetic flow meter is placed around the circumflex branch of the left coronary artery, and an inflatable balloon is placed just downstream of that ring for the production of coronary stenoses under the control of the coronary output.
Piezoelectric crystals (5 MHz) connected to a Triton sonomicrometer are implanted in the subendocardium of the left ventricular wall, in an area that is to become ischaemic, for measuring local myocardial contractility; epicardial electrodes are placed in the same area for recording the epicardial electrocardiogram.
Two electrodes are sewn at the right auricle in the region of the sinoauricular node for the protocols including pacing sequences. […]
Myocardial contractility is evaluated by the proportion of systolic shortening of the lengths of the segments between the piezoelectric crystals.
Hypokinesia in the ischaemic area is expressed as percentage variation relative to the contractility measured in the control period.
Modification of the epicardial ECG in the ischaemic area consists in raising the epicardial ST segment measured in millivolts (mV).

A further test addresses Alpha adrenergic α2. Description: Binding to neurotransmitter receptors: alpha2 adrenergic ([3H] Rauwolscine). As to conditions: α2, [3H] Rauwolscine; read-out: K0.5.
A further test concerns the target Dopamine D2 (Homo sapiens, UniProt P14416). Description: Binding to neurotransmitter receptors: D2 ([3H] 205 501). As to conditions: read-out: K0.5.

Sequence of Dopamine D2 (P14416 whole entry): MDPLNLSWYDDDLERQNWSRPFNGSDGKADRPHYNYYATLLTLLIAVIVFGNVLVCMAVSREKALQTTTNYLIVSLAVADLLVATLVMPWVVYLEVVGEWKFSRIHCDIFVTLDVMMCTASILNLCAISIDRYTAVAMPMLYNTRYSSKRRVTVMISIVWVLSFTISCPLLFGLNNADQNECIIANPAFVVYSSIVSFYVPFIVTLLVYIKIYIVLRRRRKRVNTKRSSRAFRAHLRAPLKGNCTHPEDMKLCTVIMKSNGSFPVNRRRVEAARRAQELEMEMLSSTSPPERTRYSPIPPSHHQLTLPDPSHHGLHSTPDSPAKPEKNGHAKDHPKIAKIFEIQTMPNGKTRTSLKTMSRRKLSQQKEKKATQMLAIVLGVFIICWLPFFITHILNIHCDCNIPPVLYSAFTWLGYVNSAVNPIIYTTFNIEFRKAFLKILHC

Take `COc1ccc(CSC2CCN(CC=Cc3ccccc3)CC2)c(OC)c1OC` [Example 1, 4-(2,3,4-trimethoxybenzylthio)-1-cinnamylpiperidine]: the figures for the IC50 on Beta adrenergic β, on Alpha adrenergic α2 and at Dopamine D2 were 2000 nM, 900 nM and 300 nM, respectively. Further, the “Epicardial ST delta mV” value with beagle dogs (solvent +6.0) is recorded as “+0.5 mV”. Further, in the test with beagle dogs (solvent -62.6), the Contractility delta % is listed as -42.2%.
